Experimental data from ChEMBL document CHEMBL5727793, “Covalent inhibitors of PAD4” (2020).

Test: RapidFire Mass Spectrometry (RFMS) Activity Assay: Compounds were solubilized in 100% DMSO to achieve 100 mM final compound concentration. Compound stock solutions were stored at RT. A series of dilutions were prepared in DMSO and mixed 8 times with 20 μL mixing volume. […] After 5 mins, 10 μL of 100 μM of substrate in buffer (100 mM Tris-HCl pH 7.6, 2 mM DTT, 2 mM CaCl2) was added and the reaction incubated for 60 mins at 37° C. The enzymatic reaction was quenched by addition of 40 μl of 5% TCA in ACN (1.7% TCA final concentration) stop solution. Arginine containing substrate and citrulline containing product (+1 Da mass shift) were subjected to solid phase extraction on Agilent RapidFire (RF) 300 system and detected on a coupled, triple quadrupole Agilent 6460 QQQ mass spectrometry (MS) device under application of multiple reaction monitoring (MRM) for quantitation.

Row | IC50 [µM] | Structure (SMILES)
1 | > 10 | CN(C)C/C=C/C(=O)N[C@@H]1C[C@H](N)CN(C(=O)c2ccc3c(c2)nc(-c2cc4cccnc4n2CC2CC2)n3C)C1
2 | > 10 | CN(C)C/C=C/C(=O)N[C@H]1CCN(C(=O)c2ccc3c(c2)nc(-c2cc4cccnc4n2CC2CC2)n3C)C[C@H]1N
